Results from paper PMC10368209, “Indolo[2,3-e]benzazocines and indolo[2,3-f]benzazonines and their copper(II) complexes as microtubule destabilizing agents” (Dalton Transactions (Cambridge, England : 2003), 2023).
In brackets after ≈: the same amount, converted by molar mass. Several values for one entry are separate records, joined by “and”; a condition that tells them apart may be missing. Equal entries are not always repeated. Where two headings read alike, the source gives them in different places. Blank lines part the entries; values can stand above or below the molecule they belong to.

Columns and labels:
[1] = test system: MCF-7 breast cancer cells; assay: In vitro cytotoxicity MTT assay; format: cell-based, human; settings: for IC50: 72 h incubation, MTT
Experimental: The human cancer cell lines were purchased from LGC Promochem (Teddington, UK), and the MRC-5 cell line is a Sigma-Aldrich (Merck KGaA, Darmstadt, Germany) product. […] The MCF-7 and MRC-5 cells were cultured in Eagle's Minimal Essential Medium (EMEM) containing 4.5 g L^−1 of glucose and supplemented with a non-essential amino acid mixture, a selection of vitamins and 10% FBS. […] The cells were detached with Trypsin-Versene (EDTA) solution for 5 min at 37 °C.
Prior to the cytotoxicity assays 10 mM stock solutions of the tested compounds were prepared in DMSO. […] The positive control was doxorubicin (Merck), and CuCl2 was also tested. All cancer cells were treated with Trypsin-Versene (EDTA) solution. […] The final volume was 200 μL in the wells containing compounds and cells. The MCF-7 and MRC-5 cells were seeded overnight prior to the assay. The following day, the serial dilution of the compounds were made in separate plates and added to the cells. The culture plates were incubated at 37 °C for 72 h; and at the end of the incubation period, 20 μL of 5 mg mL^−1 3-(4,5-dimethylthiazol-2-yl)-2,5-diphenyltetrazolium bromide (MTT) solution was added to each well and incubated for 4 h at 37 °C. The plates were further incubated at 37 °C overnight following the addition of 100 μL of sodium dodecyl sulfate (SDS) solution (10% in 0.01 M HCl). The optical density (OD) was measured at 450 nm (ref. 620 nm) with a Multiscan EX ELISA reader to follow the cell growth. […] The sigmoidal dose–response model (comparing variable and fixed slopes) of the GraphPad Prism software[88] was used to fit the curves. The IC50 values are averages from at least 3 independent experiments.

[2] = test system: Colo205 human colon adenocarcinoma cell line; assay: In vitro cytotoxicity MTT assay; format: cell-based; settings: for IC50: 72 h incubation, MTT
From the text: (§1) Four cell lines were used in this study: the doxorubicin-sensitive Colo205 (CCL-222, ATCC, Manassas, VA, USA) human colon adenocarcinoma cell line; the doxorubicin-resistant Colo320/MDR-LRP expressing P-glycoprotein (P-gp, ABCB1) (MDR1)-LRP (CCL-220.1, ATCC) human colon adenocarcinoma cell line; the hormone-responsive MCF-7 breast cancer cell line and the normal MRC-5 human embryonal lung fibroblast cell line (CCL-171, ATCC). The human cancer cell lines were purchased from LGC Promochem (Teddington, UK), and the MRC-5 cell line is a Sigma-Aldrich (Merck KGaA, Darmstadt, Germany) product. The Colo205 and Colo320 cell lines were cultured in RPMI 1640 medium supplemented with 10% fetal bovine serum (FBS), 2 mM L-glutamine, 1 mM Na-pyruvate and 10 mM HEPES. The MCF-7 and MRC-5 cells were cultured in Eagle's Minimal Essential Medium (EMEM) containing 4.5 g L^−1 of glucose and supplemented with a non-essential amino acid mixture, a selection of vitamins and 10% FBS. All cell lines were incubated at 37 °C, 5% CO2, 95% air atmosphere. The cells were detached with Trypsin-Versene (EDTA) solution for 5 min at 37 °C.
(§2) Prior to the cytotoxicity assays 10 mM stock solutions of the tested compounds were prepared in DMSO. These stock solutions were diluted with the culture medium (EMEM or RPMI 1640), and twofold serial dilutions of the compounds were prepared in 100 μL of the appropriate medium. […] The positive control was doxorubicin (Merck), and CuCl2 was also tested. All cancer cells were treated with Trypsin-Versene (EDTA) solution. A cell density of 1 × 10^4 cells was adjusted for the colon adenocarcinoma cells in 100 μL of RPMI 1640 medium and were added to each well, except for the medium control wells. The final volume was 200 μL in the wells containing compounds and cells. The MCF-7 and MRC-5 cells were seeded overnight prior to the assay. The following day, the serial dilution of the compounds were made in separate plates and added to the cells. The culture plates were incubated at 37 °C for 72 h; and at the end of the incubation period, 20 μL of 5 mg mL^−1 3-(4,5-dimethylthiazol-2-yl)-2,5-diphenyltetrazolium bromide (MTT) solution was added to each well and incubated for 4 h at 37 °C. The plates were further incubated at 37 °C overnight following the addition of 100 μL of sodium dodecyl sulfate (SDS) solution (10% in 0.01 M HCl). The optical density (OD) was measured at 450 nm (ref. 620 nm) with a Multiscan EX ELISA reader to follow the cell growth. Inhibition of cell growth (expressed as IC50: inhibitory concentration that reduces by 50% the growth of the cells exposed to the tested compounds) was determined from the sigmoid curve, where 100 − ((ODsample − ODmedium control)/(ODcell control − ODmedium control)) × 100 values were plotted against the logarithm of compound concentrations. The sigmoidal dose–response model (comparing variable and fixed slopes) of the GraphPad Prism software[88] was used to fit the curves. The IC50 values are averages from at least 3 independent experiments.

[3] = test system: doxorubicin-resistant Colo320 human colon adenocarcinoma cell line; assay: In vitro cytotoxicity MTT assay; format: cell-based; settings: for IC50: 72 h incubation, MTT
From the text: as §1, §2

[4] = test system: normal human embryonal lung fibroblast cells (MRC-5); assay: In vitro cytotoxicity MTT assay; format: cell-based
From the text: as §1, §2

[5] = test system: tubulin (colchicine site); assay: Inhibition of [3H]colchicine binding to tubulin; settings: 0.5 μM tubulin, 5 μM [3H]colchicine
Experimental: (§3) The methods used to determine the IC50 values for tubulin assembly and inhibition of [^3H]colchicine binding were recently described in detail.[96] In brief, for the assembly assay, 0.25 mL reaction mixtures contained 1.0 mg mL^−1 (10 μM) tubulin, 0.8 M monosodium glutamate (pH 6.6 with HCl in 2.0 M stock solution), 4% (v/v) DMSO (compound solvent), varying compound concentrations, and 100 μM GTP. All components except GTP were preincubated at 30 °C for 15 min in a 0.24 mL volume. Reaction mixtures were then placed on ice, and the GTP was added in a 10 μL volume. Assembly was monitored in Beckman DU7400/7500 spectrophotometers equipped with electronic temperature controllers and driven by a custom program. The samples were transferred to cuvettes held at 0 °C, and the temperature was jumped to 30 °C over about 30 s. Change in turbidity was measured for 20 min at 350 nm, and the IC50 was defined as the compound concentration that reduced the extent of reaction by 50%. For the colchicine binding assay, reaction mixtures contained 0.05 mg mL^−1 (0.5 μM) tubulin, 5.0 μM [^3H]colchicine, 5% (v/v) DMSO (compound solvent), compound as indicated, and components found to stabilize the colchicine binding activity of tubulin. Incubation was for 10 min at 37 °C, at which time the amount of colchicine bound to the tubulin is 40–60% of maximum. Each reaction mixture was diluted with 2.0 mL of ice cold water and poured onto a single Whatman DEAE-cellulose filter (tubulin binds tightly to the filter, and unbound colchicine passes through). Gravity filtration was used for the samples, and the filters were then washed with three 2.0 mL aliquots of ice cold water (vacuum aspiration). The filters were counted in a Beckman scintillation counter, with correction for the amount of radiolabel bound to filters in the absence of tubulin.

[6] = Stability constants and pKa of Cu(II) complexes by UV-vis titrations; format: physicochemical; settings: 30:70% (v/v) DMSO/H2O
Experimental: (§4) The UV–vis spectra were recorded on an Agilent Cary 8454 diode array spectrophotometer between 200 and 800 nm. Spectrophotometric titrations were carried out on samples containing the ligand (HL^1, HL^2, HL^5 or HL^1(7)) or the ligand and Cu(II) ions together at different ligand-to-metal ratios (1 : 1, 1.5 : 1, 2 : 1) by a KOH solution in a DMSO : water 30 : 70 (v/v) mixture as solvent at 25.0 ± 0.1 °C in the pH range from 1.7 to 12.7 using 0.1 M KCl ionic strength. The concentration of ligands was 10 μM. The path length was 5 cm. For pH measurements and titrations, an Orion 710A pH-meter equipped with a Metrohm combined electrode (type 6.0234.100) and a Metrohm 665 Dosimat burette was used. Blank titrations (HCl vs. KOH) were performed similarly to the method proposed by Irving et al. for pure aqueous solutions to calibrate the electrode system to the pH = −log[H+] scale in the DMSO–water solvent mixture.[83] The water ionization constant (pKw) was determined to be 14.52 ± 0.05 on average, which is in line with the literature data.[84] During the titrations argon was passed over the solutions. The computer program PSEQUAD was used to calculate the proton dissociation constants (pKa) of the ligands, the overall stability constants (log β) of the Cu(II) complexes and the individual spectra of the various species present in solution.[85] In the general equilibrium pM + qL + rH ⇌ MpLqHr the stability constants is defined as β(MpLqHr) = [MpLqHr]/[M]^p[L]^q[H]^r, where M denotes the Cu(II) ion and L the completely deprotonated ligand. The calculations were always performed from experimental data where no precipitation was observed during titration.

[7] = Thermodynamic solubility by UV-vis in saturated solutions; format: physicochemical; settings: 20 mM HEPES buffer, 25 °C, aqueous buffer, thermodynamic from solid; pH 7.4 (20 mM HEPES), aqueous solution, T = 298 K, I = 0.10 M (KCl); read-out: Thermodynamic solubility S 7.4
Experimental: The thermodynamic solubility (S) of the studied compounds was determined in saturated solutions at pH 7.40 (20 mM HEPES buffer) in the absence of DMSO at 25.0 ± 0.1 °C. UV–vis spectrophotometry was applied to determine the concentration of the compounds using calibrating samples of the compounds of known concentrations dissolved in 100% DMSO and 50% (v/v) DMSO/buffered aqueous solutions.

ct-DNA = assay: Ethidium displacement from ct-DNA by spectrofluorimetry; format: binding, calf; settings: cDNA = 0.5 μM, cethidium = 0.25 μM, 298 K, 10 mM HEPES, pH 7.40
Experimental: Fluorescence measurements were carried out on a Fluoromax (Horiba Jobin Yvon) fluorimeter. Stock solutions of the complexes and ligands were prepared in pure DMSO (c = 1 or 0.5 mM). Stock solution of ct-DNA was prepared as described recently.[86] The sample volume was […] and contained 0.5 μM ct-DNA expressed in base pairs, 0.25 μM ethidium and different concentrations of complexes 1, 2, 4, 5, 6, 4(6), 4(7) or ligands (HL^1, HL^2, HL^5, HL^6) in 10 mM HEPES buffer (pH 7.40). DMSO content of the samples varied between 0 and 1% (v/v). The excitation wavelength was 510 nm, and the fluorescence emission was measured in the range of 530–750 nm. Corrections for self-absorbance and inner filter effect were performed as described previously.[87]

[8] = Proton dissociation constants of ligands by UV-vis titrations; format: physicochemical; settings: DMSO:water 30:70 (v/v) mixture, 30:70% (v/v) DMSO/H2O, T = 298 K, I = 0.10 M (KCl)
Experimental: as §4, with “In the general equilibrium pM + qL + rH ⇌ MpLqHr the stability constants is defined as β(MpLqHr) = [MpLqHr]/[M]^p[L]^q[H]^r, where M denotes the Cu(II) ion and L the completely deprotonated ligand. The calculations were always performed from experimental data where no precipitation was observed during titration.” left out

purified tubulin = assay: Inhibition of tubulin assembly (turbidity); format: biochemical; settings: 10 μM tubulin, 30 °C, turbidity at 350 nm; read-out: Inhibition of tubulin assembly IC50 ± SD
Experimental: as §3, with “Incubation was for 10 min at 37 °C, at which time the amount of colchicine bound to the tubulin is 40–60% of maximum. Each reaction mixture was diluted with 2.0 mL of ice cold water and poured onto a single Whatman DEAE-cellulose filter (tubulin binds tightly to the filter, and unbound colchicine passes through). Gravity filtration was used for the samples, and the filters were then washed with three 2.0 mL aliquots of ice cold water (vacuum aspiration).” left out

[9] = Homo sapiens, MRC5, 72 h incubation
[10] = selectivity factor normal vs cancer cells
[11] = Cu(II) complex of the ligand, T = 298 K, I = 0.10 M (KCl)

SMILES: COc1cccc2c1C(=O)c1c(O)c3c(c(O)c1C2=O)C[C@@](O)(C(=O)CO)C[C@@H]3O[C@H]1C[C@H](N)[C@H](O)[C@H](C)O1 [Doxorubicin, doxorubicin, reference compound]
IC50 ([1]; Homo sapiens, MCF7): 0.21 ± 0.03 µM
IC50 ([2]; Homo sapiens, COLO 205): 0.82 ± 0.02 µM
IC50 ([3]; Homo sapiens, COLO 320): 3.3 ± 0.1 µM
IC50 [4, 9]: 1.16 ± 0.11 µM

SMILES: [Cl][Cu][Cl] [CuCl2, reference compound]
IC50 [1]: 32 ± 3 µM
IC50 [2]: 33 ± 1 µM
IC50 [3]: 20 ± 2 µM
IC50 ([4]; 72 h incubation): 40 ± 1 µM

Inhibition of colchicine binding % inhibition ± SD ([5]; 5 μM inhibitor): 18 ± 5%
Inhibition of colchicine binding % inhibition ± SD ([5]; 25 μM inhibitor): 46 ± 5%
log β [Cu(HL)]^2+ [6, 11]: 8.55 ± 0.02
log β [Cu(L)]^+ [6, 11]: 4.14 ± 0.02
log K′ [Cu(L)]^+ ([6]; K′: H2(HL)^2+ + Cu^2+ ⇌ [Cu(L)]^+ + 3H^+, 298 K): −2.97
solubility thermodynamic [7]: 8 µM (≈ 2.92 µg/mL)
pKa ([8]; read-out: pKa1 H2(HL)^2+): 2.07 ± 0.01
pKa ([8]; read-out: pKa2 H(HL)^+): 5.04 ± 0.02
SMILES: C(=N\N=C1/NCCc2ccccc2-c2c1[nH]c1ccccc21)/c1ccccn1 [HL^1]
IC50 ([1]; Homo sapiens, MCF7): 1.3 ± 0.1 µM
SF (MCF-7) = IC50 MRC-5/IC50 MCF-7 [1, 10]: 31.03
Displacement of intercalated ethidium from ct-DNA (in words) (ct-DNA): could not displace the intercalated ethidium cation
IC50 ([2]; Homo sapiens, COLO 205): 30 ± 2 µM
SF (Colo205) = IC50 MRC-5/IC50 Colo205 [2, 10]: 1.37
IC50 ([3]; Homo sapiens, COLO 320): 5.6 ± 0.1 µM
SF (Colo320) = IC50 MRC-5/IC50 Colo320 [3, 10]: 7.26
IC50 [4, 9]: 40 ± 1 µM

SMILES: COc1ccc(/C=C\c2cc(OC)c(OC)c(OC)c2)cc1O [CA-4, combretastatin A-4, reference compound]
Inhibition of colchicine binding % inhibition ± SD ([5]; 0.5 μM inhibitor): 81 ± 4%
Inhibition of colchicine binding % inhibition ± SD ([5]; 5 μM inhibitor): 98 ± 0.9%
